Usually inhibition stands for the drop in the measured response relative to a control, in per cent.

Common to all, as to experiment: Large panel kinase profiling
What all share (format): biochemical
Conditions in all cases: 1 μM test article, 1 mM ATP

One test concerns the target T1, MAPK13/P38D (Homo sapiens, UniProt O15264).
T1 construct: AssayQuant Technologies, Inc. (service provider)
T1 sequence (O15264 1-365): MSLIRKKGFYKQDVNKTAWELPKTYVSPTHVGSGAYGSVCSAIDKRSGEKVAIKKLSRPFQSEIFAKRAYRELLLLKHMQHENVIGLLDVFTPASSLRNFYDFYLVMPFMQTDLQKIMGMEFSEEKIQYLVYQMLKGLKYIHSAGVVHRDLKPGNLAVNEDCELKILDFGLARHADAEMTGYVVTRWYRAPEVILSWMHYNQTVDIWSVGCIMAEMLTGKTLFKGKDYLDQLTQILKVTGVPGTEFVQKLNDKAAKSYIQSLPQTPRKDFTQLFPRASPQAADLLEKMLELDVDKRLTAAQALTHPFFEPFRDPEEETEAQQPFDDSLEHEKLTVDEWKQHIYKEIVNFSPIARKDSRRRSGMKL
A digest of the protocol: (§1)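 CSox-Sensor fluorescence readout; test article 1 μM, ATP 1 mM, 30° C.; kinetic reads at 1-min intervals, Ex 360/Em 485 nm.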

In another test the target is CAMK1D (Homo sapiens, UniProt Q8IU85). The gist of the method:
as §1

The target of a further test is PDGFRB (Homo sapiens, UniProt P09619). A digest of the protocol:
as §1

A further test concerns the target MAP3K1 (Homo sapiens, UniProt Q13233). The gist of the method: as §1
The next test concerns the target T2, PRKCE/PKCE (Homo sapiens, UniProt Q02156).
T2 sequence (Q02156 1-737): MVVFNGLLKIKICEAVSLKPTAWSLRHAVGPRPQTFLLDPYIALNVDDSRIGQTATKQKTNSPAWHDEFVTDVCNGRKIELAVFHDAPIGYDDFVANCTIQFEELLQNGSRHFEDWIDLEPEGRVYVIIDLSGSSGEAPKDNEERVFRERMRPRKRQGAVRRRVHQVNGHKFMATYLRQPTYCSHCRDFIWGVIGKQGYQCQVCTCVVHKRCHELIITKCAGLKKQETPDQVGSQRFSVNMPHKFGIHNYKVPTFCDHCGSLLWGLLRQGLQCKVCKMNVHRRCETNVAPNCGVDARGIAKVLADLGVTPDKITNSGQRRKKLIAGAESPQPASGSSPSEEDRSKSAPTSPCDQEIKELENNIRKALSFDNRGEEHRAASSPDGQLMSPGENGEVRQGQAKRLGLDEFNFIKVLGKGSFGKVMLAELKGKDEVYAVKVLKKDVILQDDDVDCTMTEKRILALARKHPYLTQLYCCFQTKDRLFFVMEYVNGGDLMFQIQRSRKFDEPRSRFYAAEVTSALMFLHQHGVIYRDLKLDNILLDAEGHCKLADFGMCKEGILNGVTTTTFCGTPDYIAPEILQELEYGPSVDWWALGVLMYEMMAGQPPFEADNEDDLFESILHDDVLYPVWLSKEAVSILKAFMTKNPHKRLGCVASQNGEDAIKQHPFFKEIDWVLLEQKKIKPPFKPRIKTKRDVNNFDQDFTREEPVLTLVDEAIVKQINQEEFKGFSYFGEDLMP
The gist of the method: as §1

In another test the target is FES (Homo sapiens, UniProt P07332). The gist of the method: as §1
In a further test the target is ERN1 (Homo sapiens, UniProt O75460). A digest of the protocol: as §1
Sequence of ERN1 (O75460 19-977, species assumed): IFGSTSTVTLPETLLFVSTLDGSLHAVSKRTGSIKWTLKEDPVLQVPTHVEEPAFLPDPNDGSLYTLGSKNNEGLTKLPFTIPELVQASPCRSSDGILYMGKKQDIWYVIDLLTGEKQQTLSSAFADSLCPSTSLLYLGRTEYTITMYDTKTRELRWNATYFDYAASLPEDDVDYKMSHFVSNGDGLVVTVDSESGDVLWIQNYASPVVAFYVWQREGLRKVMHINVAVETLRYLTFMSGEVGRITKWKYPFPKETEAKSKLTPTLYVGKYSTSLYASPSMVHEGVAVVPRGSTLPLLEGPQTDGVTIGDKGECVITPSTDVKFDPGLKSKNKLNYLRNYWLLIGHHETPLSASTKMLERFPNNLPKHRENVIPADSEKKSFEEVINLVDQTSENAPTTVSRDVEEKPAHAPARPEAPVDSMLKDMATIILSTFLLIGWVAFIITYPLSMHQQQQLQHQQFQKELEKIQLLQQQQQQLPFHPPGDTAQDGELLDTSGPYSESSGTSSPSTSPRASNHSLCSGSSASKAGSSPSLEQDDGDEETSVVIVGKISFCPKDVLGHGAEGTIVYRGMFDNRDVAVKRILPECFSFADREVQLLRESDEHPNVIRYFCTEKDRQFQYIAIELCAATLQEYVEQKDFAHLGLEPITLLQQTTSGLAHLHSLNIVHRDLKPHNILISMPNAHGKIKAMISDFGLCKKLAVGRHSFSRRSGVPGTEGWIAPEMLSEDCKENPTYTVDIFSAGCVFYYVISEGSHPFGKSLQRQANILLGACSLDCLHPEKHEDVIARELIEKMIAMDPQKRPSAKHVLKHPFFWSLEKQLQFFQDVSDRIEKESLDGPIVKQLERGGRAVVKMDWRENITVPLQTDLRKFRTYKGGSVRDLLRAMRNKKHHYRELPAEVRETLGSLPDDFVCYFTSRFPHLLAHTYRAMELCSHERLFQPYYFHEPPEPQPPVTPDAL
In a further test the target is T3, TNK2/ACK (Homo sapiens, UniProt Q07912).
T3 construct: AssayQuant Technologies, Inc. (contract laboratory that ran the panel)
T3 sequence (Q07912 whole entry): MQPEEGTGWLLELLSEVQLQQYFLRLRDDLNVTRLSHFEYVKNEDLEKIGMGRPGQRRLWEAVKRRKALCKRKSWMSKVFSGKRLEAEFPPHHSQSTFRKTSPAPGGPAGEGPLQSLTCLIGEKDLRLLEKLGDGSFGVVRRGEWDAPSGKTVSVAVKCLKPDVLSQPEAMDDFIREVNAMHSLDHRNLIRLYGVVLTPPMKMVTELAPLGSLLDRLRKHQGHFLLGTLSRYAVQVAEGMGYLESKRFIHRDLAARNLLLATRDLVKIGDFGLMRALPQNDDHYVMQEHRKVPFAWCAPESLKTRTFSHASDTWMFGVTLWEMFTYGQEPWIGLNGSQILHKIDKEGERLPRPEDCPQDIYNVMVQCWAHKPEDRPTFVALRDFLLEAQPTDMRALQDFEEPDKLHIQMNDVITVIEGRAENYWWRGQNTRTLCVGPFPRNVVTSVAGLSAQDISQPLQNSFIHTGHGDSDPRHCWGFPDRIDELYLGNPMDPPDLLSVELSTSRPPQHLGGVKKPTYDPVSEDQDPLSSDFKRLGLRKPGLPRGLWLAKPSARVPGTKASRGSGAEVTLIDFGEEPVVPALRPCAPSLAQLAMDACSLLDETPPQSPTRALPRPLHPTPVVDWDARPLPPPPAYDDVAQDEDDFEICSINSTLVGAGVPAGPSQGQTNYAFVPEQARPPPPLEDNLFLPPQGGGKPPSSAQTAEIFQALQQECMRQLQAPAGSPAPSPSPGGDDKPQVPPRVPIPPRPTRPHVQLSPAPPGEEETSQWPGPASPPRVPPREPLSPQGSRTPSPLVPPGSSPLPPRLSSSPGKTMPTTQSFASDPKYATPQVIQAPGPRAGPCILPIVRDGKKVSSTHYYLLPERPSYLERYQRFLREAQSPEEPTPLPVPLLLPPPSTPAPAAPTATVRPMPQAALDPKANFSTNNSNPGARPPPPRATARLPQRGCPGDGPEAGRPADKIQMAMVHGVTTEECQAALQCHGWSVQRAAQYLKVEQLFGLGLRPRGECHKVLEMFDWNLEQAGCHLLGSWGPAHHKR
A digest of the protocol: as §1

The target of a further test is T4, MYLK4 (Homo sapiens, UniProt Q86YV6).
T4 construct: AssayQuant Technologies, Inc. (assay service)
T4 sequence (Q86YV6 1-388): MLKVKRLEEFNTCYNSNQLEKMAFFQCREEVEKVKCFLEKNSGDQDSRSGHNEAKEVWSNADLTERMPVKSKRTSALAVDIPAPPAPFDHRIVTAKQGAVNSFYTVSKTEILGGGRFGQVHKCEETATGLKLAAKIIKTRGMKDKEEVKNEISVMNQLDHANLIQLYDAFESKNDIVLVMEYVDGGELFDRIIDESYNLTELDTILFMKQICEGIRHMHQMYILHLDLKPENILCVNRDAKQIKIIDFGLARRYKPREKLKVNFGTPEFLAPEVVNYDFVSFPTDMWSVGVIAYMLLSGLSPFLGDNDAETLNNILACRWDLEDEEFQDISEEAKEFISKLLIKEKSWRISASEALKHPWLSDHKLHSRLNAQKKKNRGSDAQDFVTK
A digest of the protocol:
as §1

Sequence of PDGFRB (P09619 33-1106, species assumed): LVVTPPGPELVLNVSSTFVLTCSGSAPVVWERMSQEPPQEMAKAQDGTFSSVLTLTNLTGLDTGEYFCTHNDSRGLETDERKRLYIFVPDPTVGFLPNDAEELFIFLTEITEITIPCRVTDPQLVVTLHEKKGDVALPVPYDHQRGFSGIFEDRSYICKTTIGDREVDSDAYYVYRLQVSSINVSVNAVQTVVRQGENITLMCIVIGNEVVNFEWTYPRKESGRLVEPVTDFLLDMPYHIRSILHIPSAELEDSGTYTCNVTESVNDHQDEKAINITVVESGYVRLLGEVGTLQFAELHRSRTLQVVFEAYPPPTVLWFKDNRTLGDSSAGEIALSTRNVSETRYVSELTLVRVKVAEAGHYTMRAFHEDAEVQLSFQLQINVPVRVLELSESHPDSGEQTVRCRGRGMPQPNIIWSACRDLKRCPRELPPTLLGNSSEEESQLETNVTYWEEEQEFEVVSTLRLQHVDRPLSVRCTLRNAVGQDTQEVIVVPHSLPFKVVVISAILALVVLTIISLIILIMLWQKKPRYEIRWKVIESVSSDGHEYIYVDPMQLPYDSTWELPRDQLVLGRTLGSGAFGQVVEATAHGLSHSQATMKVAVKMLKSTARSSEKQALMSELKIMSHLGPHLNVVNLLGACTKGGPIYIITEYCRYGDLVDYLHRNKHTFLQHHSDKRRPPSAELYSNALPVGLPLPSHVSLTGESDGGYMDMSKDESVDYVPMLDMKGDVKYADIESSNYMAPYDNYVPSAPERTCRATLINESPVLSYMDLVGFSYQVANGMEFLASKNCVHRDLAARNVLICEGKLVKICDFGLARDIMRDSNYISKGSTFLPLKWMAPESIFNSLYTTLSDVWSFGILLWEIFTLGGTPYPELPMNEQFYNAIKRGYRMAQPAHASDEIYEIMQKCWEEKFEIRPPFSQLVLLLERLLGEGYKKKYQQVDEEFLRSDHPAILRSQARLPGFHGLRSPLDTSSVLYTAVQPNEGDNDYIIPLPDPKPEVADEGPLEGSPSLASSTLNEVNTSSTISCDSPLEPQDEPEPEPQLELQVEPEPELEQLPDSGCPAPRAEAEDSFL
Sequence of MAP3K1 (Q13233 whole entry, species assumed): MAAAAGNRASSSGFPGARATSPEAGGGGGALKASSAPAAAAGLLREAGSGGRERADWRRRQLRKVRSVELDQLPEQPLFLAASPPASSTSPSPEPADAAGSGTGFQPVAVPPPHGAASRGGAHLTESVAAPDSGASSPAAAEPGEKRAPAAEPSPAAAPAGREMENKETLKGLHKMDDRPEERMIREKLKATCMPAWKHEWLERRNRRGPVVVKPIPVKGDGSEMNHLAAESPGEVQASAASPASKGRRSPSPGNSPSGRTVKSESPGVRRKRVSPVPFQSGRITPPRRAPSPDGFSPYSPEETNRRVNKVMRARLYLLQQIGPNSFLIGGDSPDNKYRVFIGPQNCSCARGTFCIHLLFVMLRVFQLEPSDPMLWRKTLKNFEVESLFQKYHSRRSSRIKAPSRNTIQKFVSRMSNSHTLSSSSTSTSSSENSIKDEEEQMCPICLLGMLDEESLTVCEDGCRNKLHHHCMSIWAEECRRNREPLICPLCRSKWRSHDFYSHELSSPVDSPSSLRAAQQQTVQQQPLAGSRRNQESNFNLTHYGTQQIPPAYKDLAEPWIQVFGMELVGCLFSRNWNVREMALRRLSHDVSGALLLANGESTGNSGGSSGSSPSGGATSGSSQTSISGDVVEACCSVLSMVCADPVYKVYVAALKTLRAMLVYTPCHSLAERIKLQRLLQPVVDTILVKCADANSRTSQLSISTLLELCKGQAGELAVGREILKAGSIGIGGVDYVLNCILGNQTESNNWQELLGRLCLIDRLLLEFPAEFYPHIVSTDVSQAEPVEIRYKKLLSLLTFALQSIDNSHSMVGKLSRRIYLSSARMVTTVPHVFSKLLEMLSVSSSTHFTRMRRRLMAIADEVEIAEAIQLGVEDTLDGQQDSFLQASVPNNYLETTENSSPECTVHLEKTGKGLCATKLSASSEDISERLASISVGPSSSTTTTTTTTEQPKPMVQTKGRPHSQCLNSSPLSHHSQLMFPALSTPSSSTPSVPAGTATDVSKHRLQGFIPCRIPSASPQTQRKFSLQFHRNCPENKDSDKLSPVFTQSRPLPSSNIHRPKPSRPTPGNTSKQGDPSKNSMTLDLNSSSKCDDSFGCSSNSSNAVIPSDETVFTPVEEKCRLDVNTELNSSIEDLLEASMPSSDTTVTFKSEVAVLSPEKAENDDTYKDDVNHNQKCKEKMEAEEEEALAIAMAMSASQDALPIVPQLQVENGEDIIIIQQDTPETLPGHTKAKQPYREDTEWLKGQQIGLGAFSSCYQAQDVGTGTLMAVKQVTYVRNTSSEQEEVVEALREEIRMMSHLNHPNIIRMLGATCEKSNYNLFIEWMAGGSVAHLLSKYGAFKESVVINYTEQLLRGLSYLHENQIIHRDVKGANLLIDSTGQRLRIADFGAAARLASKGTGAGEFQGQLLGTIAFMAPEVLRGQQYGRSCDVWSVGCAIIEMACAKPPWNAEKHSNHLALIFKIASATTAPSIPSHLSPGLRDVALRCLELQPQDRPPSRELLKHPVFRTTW
Sequence of CAMK1D (Q8IU85 whole entry): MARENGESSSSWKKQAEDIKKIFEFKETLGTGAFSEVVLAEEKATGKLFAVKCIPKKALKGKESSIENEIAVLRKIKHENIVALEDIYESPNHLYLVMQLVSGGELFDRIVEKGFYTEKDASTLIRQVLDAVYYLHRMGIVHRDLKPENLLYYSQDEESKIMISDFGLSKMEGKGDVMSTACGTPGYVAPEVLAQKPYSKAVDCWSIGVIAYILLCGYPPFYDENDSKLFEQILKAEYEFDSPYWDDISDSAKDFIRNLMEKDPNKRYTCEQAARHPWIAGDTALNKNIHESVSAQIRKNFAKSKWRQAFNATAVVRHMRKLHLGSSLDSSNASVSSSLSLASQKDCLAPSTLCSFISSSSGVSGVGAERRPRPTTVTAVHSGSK

`C=CC(=O)N1CCCC(c2c(F)cc(C(N)=O)c3[nH]c4c(c23)CCCCC4)C1` (single isomer, unassigned) [Compound 5-6]: the inhibition at 1 µM at MAPK13/P38D was 6.7%; on CAMK1D it was 19.6%; at PDGFRB, -52.9%; at MAP3K1 it was 6.4%; at PRKCE/PKCE it was -3.2%; at FES, 24.5%. In addition, the inhibition at 1 µM was -5.4% against ERN1, -8.3% on TNK2/ACK and 29.7% on MYLK4.

In the case of `C=CC(=O)N1CCC[C@@H](c2c(F)cc(C(N)=O)c3[nH]c4c(c23)CC2(CC4)CC2)C1` [Compound 6-2, (S)-5-(1-acryloylpiperidin-3-yl)-6-fluoro-1,2,4,9-tetrahydrospiro[carbazole-3,1′-cyclopropane]-8-carboxamide], the inhibition at 1 µM on MAPK13/P38D is 26%; against CAMK1D, 26.1%; against PDGFRB it was 23.2%; against MAP3K1, -7.9%; against PRKCE/PKCE, 0%; at FES, -33%. Also, the inhibition at 1 µM was 3.1% on ERN1, 13.4% at TNK2/ACK and -30.5% at MYLK4.

`C=CC(=O)N1CCC[C@@H](c2c(F)cc(C(N)=O)c3[nH]c4c(c23)CCC4)C1` [Compound 10-2, (S)-8-(1-acryloylpiperidin-3-yl)-7-fluoro-1,2,3,4-tetrahydrocyclo-penta[b]indole-5-carboxamide]: the inhibition at 1 µM is 9% against MAPK13/P38D; 10.5% against CAMK1D; 4.7% on PDGFRB; 10.3% against MAP3K1; -3.5% against PRKCE/PKCE; -31.2% at FES. In addition, the inhibition at 1 µM on ERN1 is -2.9%; against TNK2/ACK it was 2%; against MYLK4, -21.1%.
